From patent publication US11046660B2, “Compounds and their use as PDE4 activators” (MIRONID LIMITED, priority 2016, dated 2021)

Columns and labels:
[1] = system: MDCK cells; assay: Reduction of intracellular cAMP levels in forskolin-stimulated MDCK cells (Experiment 2); type: cell-based, canine; conditions: compound 10 μM for 10 min prior to forskolin 10 μM for 2 min; FIG. 2
Protocol: MDCK cells were seeded at 100,000 cells per well, and left to adhere overnight. The cells were then treated with the test compound (10 μM) for 10 minutes, prior to stimulation with forskolin (10 μM, Sigma) for 2 minutes. Media was aspirated, and hydrochloric acid (0.1M) was added to lyse the cells. The cAMP assay (Enzo Life Sciences) was performed according to the manufacturer's instructions.

[2] = target: T1, full-length human PDE4B2 (Homo sapiens, UniProt Q07343); assay: PDE4B2 short form enzyme activation radio-assay (Experiment 1, Protocol A or B); type: biochemical; conditions: 30 μM, mean % increase in counts over basal activity
T1 construct: and the full length human PDE4B2 short isoform; made in house; cytosol fraction of cell lysate
T1 sequence (Q07343 1-564 isoform Q07343-2): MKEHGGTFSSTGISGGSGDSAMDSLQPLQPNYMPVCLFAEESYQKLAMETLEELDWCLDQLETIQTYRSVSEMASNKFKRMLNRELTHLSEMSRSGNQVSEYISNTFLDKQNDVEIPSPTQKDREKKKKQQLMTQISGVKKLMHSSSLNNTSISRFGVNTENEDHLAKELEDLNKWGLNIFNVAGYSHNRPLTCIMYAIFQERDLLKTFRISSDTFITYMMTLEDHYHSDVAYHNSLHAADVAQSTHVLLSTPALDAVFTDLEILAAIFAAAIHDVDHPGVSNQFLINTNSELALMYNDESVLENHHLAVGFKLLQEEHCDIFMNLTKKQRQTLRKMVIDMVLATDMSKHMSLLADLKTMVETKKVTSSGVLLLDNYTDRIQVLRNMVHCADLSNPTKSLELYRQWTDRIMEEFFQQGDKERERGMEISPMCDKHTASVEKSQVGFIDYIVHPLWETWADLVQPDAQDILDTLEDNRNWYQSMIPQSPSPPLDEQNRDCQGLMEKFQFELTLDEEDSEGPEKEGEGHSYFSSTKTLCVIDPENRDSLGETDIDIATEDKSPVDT
Source text: (§1) Experiment 1: Identification of PDE4 Long Form Activators of the Present Invention Using Full-Length Human PDE4 Isoforms PDE4D5, PDE4A4, PDE4B1 and PDE4B2
(§2) HEK 293 cells were transfected with pDEST™ PDE4 expression vectors using Lipofectamine LTX/Plus reagent (Invitrogen) as outlined by the manufacturer and clonal isolates expanded to obtain cell lines that stably expressed the full-length human PDE4D5, PDE4A4 and PDE4B1 long isoforms and the full length human PDE4B2 short isoform. These were called the HEK-PDE4D5, HEK-PDE4A4, HEK-PDE4B1 and HEK-PDE4B2 cell lines, respectively.
(§3) HEK-PDE4D5 cells were seeded out in 100 mm plates and incubated at 37° C. in an atmosphere of 5% CO2, 95% air. Cell lysates were prepared using KHEM buffer [50 mM KCl, 10 mM EGTA, 50 mM HEPES (pH 7.2), 1.92 mM MgCl2].
(§4) To prepare the cell lysates, the 100 mm plates containing the cells were placed on ice and washed with ice-cold PBS (phosphate buffered saline, pH 7.4). KHEM buffer (500 μl) was added to the cells. Cells were then scraped off the plate and triturated using a needle (BD Microlance™ 0.8, 40 mm). The lysed cells were then centrifuged at 2000 rpm for 10 minutes to remove cell debris and the supernatant (cell lysate containing recombinant PDE4D5) was transferred to a fresh tube and kept on ice.
(§5) The cell lysate containing recombinant PDE4D5 was transferred into a centrifuge tube and placed into an ultracentrifuge (BECKMAN COULTER) and spun at high speed (100,000 g) for 30 minutes at 4° C. The cytosol fraction was then collected and its protein amount determined using a BCA protein assay.
(§6) PDE assays were performed using a final concentration of 10 mM Tris/5 mM MgCl2 and 1 μM [^3H]-cAMP (Perkin Elmer) plus PDE4D5 cell lysate cytosol fraction, containing over-expressed PDE4D5, with and without test compound. Incubations were performed at 30° C. for 5 minutes. The samples were then placed in a boiling water bath for 2 minutes to denature the PDE enzyme, and returned to ice. Samples were allowed to cool for 10 min after which snake venom 5′-nucleotidase (25 μl, 1 mg/ml; Sigma) was added. The tubes were vortexed and incubated in a water bath at 30° C. for 10 minutes, to attain conversion of [^3H]-5′-AMP to [^3H]-adenosine, and then placed on ice. Dowex ion exchange resin (Sigma) prepared as a 1:1 Dowex: water stock was thoroughly re-suspended and diluted 2:1 with ethanol. The resulting Dowex suspension (0.4 ml) was added to each tube. Tubes were vortexed to mix and then incubated on ice for at least 15 minutes before a final vortex. The Dowex resin was pelleted by centrifugation at 13,000 g at 4° C. for 3 minutes and 150 μl of the supernatant was removed to an Eppendorf tube containing 1 ml of ScintiSafe3 scintillation fluid (Fisher). Tubes were vortexed thoroughly to mix and the recovered [^3H]-adenosine was quantified by measuring counts over 1 minute in a scintillation counter.
(§7) The % increase in counts in the presence of test compound at a particular concentration indicates the % increase in enzyme activity at that concentration.
(§8) PDE assays were performed in thin walled V-bottomed 96-well plates. The assays were performed at a final concentration of 10 mM Tris/5 mM MgCl2 plus PDE4D5 cell lysate cytosol fraction, containing over-expressed PDE4D5, with and without test compound. The lysate/compound mix were incubated together for 15 min at room temperature on an orbital shaker prior to addition of [^3H] cAMP (final concentration 1 μM [^3H] cAMP; Perkin Elmer) to a final volume of 50 μl per reaction. The reactions were then incubated for 10 minutes at 30° C., terminated by heating for 2 min at 95° C. and allowed to cool. Snake venom (12.5 μl of 1 mg/ml; Crotalus atrox, Sigma) was then added and the plates were agitated and incubated for a further 15 minutes at 30° C. […]

[3] = target: T2, full-length human PDE4D5 (Homo sapiens, UniProt Q08499); assay: PDE4D5 long form enzyme activation radio-assay (Experiment 1, Protocol A or B); type: biochemical; conditions: 30 μM, mean % increase in counts over basal activity
T2 construct: stably expressed the full-length human PDE4D5, PDE4A4 and PDE4B1 long isoforms; made in house; cytosol fraction of cell lysate
T2 sequence (Q08499 1-745 isoform Q08499-6): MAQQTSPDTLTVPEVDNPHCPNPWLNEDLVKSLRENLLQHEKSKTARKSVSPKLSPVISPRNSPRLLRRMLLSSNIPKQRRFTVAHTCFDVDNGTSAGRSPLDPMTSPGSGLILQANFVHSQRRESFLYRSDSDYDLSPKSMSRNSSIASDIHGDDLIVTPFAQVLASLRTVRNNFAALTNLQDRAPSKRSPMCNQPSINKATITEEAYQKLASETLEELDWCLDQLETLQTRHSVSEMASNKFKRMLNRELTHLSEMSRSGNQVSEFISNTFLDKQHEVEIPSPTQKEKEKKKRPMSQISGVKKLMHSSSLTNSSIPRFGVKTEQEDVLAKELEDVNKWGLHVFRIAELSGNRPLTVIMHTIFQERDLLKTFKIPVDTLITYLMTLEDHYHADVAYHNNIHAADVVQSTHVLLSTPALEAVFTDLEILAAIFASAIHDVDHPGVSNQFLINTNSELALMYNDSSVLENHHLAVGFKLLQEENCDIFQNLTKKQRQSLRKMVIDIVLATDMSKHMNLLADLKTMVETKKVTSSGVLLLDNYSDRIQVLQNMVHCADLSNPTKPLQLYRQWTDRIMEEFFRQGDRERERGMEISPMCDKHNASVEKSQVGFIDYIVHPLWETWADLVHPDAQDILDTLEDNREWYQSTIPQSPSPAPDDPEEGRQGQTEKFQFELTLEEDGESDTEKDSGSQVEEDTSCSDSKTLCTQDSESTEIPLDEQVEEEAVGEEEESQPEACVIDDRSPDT
Source text: as §1, §2, §3, §4, §5, §6, §7, §8

[4] = system: MDCK cells; assay: Inhibition of in vitro cyst formation in 3D MDCK culture, PGE2-stimulated (Experiment 3, Protocol D); type: cell-based, canine; conditions: 300 nM PGE2-stimulated, FIG. 3
Source text: In this study, the well-established three-dimensional (3D) MDCK cell model is used to investigate the effects of PDE4 long form activators on the formation of kidney cysts and evaluate their potential in the treatment of polycystic kidney diseases. 3D cysts are generated based on the method of Mao et al. (Mao, Z., Streets, A. J., Ong, A. C. M. Am. J. Physiol. Renal Physiol. 300(6): F1375-F1384, 2011), with some modifications.
Type 1 collagen (Invitrogen) is first prepared on ice by neutralising an acidic stock solution (3 mg/ml) with 17 mM NaOH and diluting it to 1 mg/ml with DMEM, supplemented with 2% (v/v) FBS, 2 mM L-glutamine, 1,000 U penicillin and 1,000 μg streptomycin (DMEM-2% FBS). […]
Phase-contrast images are obtained on the Motic microscope (×4 magnification). 8 images are taken per condition and the cyst diameter measured (up to 150 cyst measurements per well). Cyst spheroid volume is calculated using the formula 4/3πr^3 where r is the radius of the spheroid. A mean cyst volume is then calculated per well. The mean cyst volume and standard deviation between the duplicate wells is then calculated and expressed as a % Cyst Volume compared to the vehicle only (DMSO+300 nM PGE2) control wells.

Row | Compound | intracellular cAMP levels in MDCK cells (in words) [1] | activation at 30 µM ([2]; Protocol A) [%] | activation at 30 µM ([3]; Protocol A) [%] | cyst formation in 3D culture of MDCK cells (in words) [4] | activation at 30 µM ([2]; Protocol B) [%] | activation at 30 µM ([3]; Protocol B) [%]
1 | COC(=O)c1nc(-c2ccc(Cl)c(F)c2)nn1CC(=O)NCc1cccc(F)c1 [Example 1, Methyl 3-(4-chloro-3-fluorophenyl)-1-{[(3-fluorobenzyl)carbamoyl]methyl}-1H-1,2,4-triazole-5-carboxylate] | reduction in intracellular cAMP levels | 19.5 | 105 | – | – | –
2 | CNC(=O)c1nc(-c2ccc(Cl)c(F)c2)nn1CC(=O)NCc1ccc2[nH]ncc2c1 [Example 28, 3-(4-chloro-3-fluorophenyl)-1-({[(1H-indazol-5-yl)methyl]carbamoyl}methyl)-N-methyl-1H-1,2,4-triazole-5-carboxamide] | – | – | – | inhibition of cyst formation | -7.9 | 101
